Like-named read-outs stand apart in the source and are kept apart here.
Legend:
[1] = target: T1, MMP-2 (Homo sapiens, UniProt P08253); conditions: cited from earlier work
T1 sequence (P08253 110-660): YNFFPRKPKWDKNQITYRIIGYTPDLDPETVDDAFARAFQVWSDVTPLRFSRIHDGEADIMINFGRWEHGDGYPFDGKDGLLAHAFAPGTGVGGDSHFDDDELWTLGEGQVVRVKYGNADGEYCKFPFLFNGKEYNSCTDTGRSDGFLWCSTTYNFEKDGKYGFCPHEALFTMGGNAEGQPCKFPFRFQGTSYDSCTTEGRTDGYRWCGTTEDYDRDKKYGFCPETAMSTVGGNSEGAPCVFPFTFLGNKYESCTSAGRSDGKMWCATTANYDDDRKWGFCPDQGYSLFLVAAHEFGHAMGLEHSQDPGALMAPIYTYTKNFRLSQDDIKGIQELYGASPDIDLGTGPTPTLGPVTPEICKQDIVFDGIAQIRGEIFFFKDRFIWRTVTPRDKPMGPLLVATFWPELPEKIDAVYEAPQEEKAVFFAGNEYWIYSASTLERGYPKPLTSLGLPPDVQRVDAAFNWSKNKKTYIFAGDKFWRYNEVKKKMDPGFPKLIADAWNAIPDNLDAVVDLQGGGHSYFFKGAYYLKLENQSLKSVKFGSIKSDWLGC

[2] = target: T1, MMP-2; conditions: cited from earlier work; remark: listed apart in the source
[3] = tested on: MMP-9; conditions: single-stranded peptide without the GPO triplets; cited from earlier work
[4] = tested on: MMP-7; conditions: cited from earlier work
[5] = previously determined; cited from earlier work
[6] = tested on: HT1080 human fibrosarcoma xenografts; assay: In vivo planar fluorescence imaging in HT1080 tumor-bearing mice; design: species or system human xenograft in male NCR nude mice
[7] = tested on: MMP-2; conditions: 450 kDa co-polymer conjugated to -Pro-Leu-Gly~Val-Arg-Gly-; cited from earlier work
[8] = tested on: gelatinases; conditions: -PLGVR- sequence; cited from earlier work
[9] = tested on: MMP-3; conditions: -PLGVR- sequence; cited from earlier work
[10] = tested on: MMP-1; conditions: -PLGVR- sequence; cited from earlier work
[11] = tested on: MMP-7; conditions: -PLGVR- sequence; cited from earlier work

For -Pro-Leu-Gly~Val-Arg-Gly-, the Km [1] is given as 290 µM, the kcat [1] is given as 4.1 s⁻¹ and the kcat/KM [1] is given as 14000 M⁻¹ s⁻¹.
In the case of GPPG~VVGEKGEQ, the “hydrolysis by MMP-2” value ([2]; single-stranded peptide without the GPO triplets) is given as “hydrolyzed extremely slowly” and the “hydrolysis by MMP-9” value [3] is given as “hydrolyzed extremely slowly”.
For GVPLSLTMGC, the level of quenching ([4]; heterologous donor and acceptor pair of near infrared dyes on the N- and C-terminus) is listed as 85% and the “fluorescence increase after digestion with MMP-7” value ([4]; heterologous donor/acceptor NIR dyes on N- and C-terminus) is listed as ~7 fold.
In the case of “[(GPO)5GPK((7-methoxycoumarin-4-yl)acetyl)GPPG~VVGEK(2,4-dinitrophenyl)GEQ(GPO)5]3 [fluorogenic THP]”, the “midpoint transition temperature TM” value [5] is given as 45 °C, the Km ([2]; MMP-2 hydrolysis) is given as 4.4 µM and the kcat ([2]; MMP-2 hydrolysis) is given as 0.062 s⁻¹. For the same compound, the kcat/KM ([2]; MMP-2 hydrolysis) was 14,000 s^−1M^−1.
For CNC(=O)[C@H](Cc1c[nH]c2ccccc12)NC(=O)[C@@H](CC(=O)NO)CC(C)C [Ilomastat], the “time course of tumor fluorescence intensity with inhibitor” value ([6]; mice treated with Ilomastat 1 mg/kg i.p., LS276-THP i.p.) was “a steady increase in fluorescence intensity occurred, indicating incomplete inhibition of tumor-associated MMP-2/MMP-9 activity”.
For “-Pro-Leu-Gly~Val-Arg-Gly- [poly-lysine-PEG co-polymer]”, the “in vivo visualization of MMP-2 activity” value [7] is given as “MMP-2 activity in mouse models was visualized”.
For -PLGVR- [MMPSense™ 680], the proteolysis by gelatinases [8] is listed as “subject to proteolysis”, the “proteolysis by MMP-3” value [9] is listed as “subject to proteolysis” and the “proteolysis by MMP-1” value [10] is listed as “subject to proteolysis”. For the same compound, the “proteolysis by MMP-7” value [11] was “subject to proteolysis”, the “tumor contrast versus contralateral thigh” value ([6]; 24 h post-injection, MMPSense 680 2 nmol i.v., n=3) was “about two-fold” and the “tumor-specific fluorescence enhancement relative to LS276-THP” value ([6]; MMPSense 680 2 nmol i.v. vs LS276-THP i.p.) was “slightly higher”. For the same compound, the “tumor-specific fluorescence contrast over time” value ([6]; MMPSense 680 2 nmol i.v., n=3, 24 h) was “increased over time for 24 h”.
